Results from patent US20080009418A1, “Selective Inhibitors” (Alchemia LTD., priority 2004, published 2008).

What was measured:
Human κ-Opioid (KOP) = molecular target: T1, Human κ-Opioid (KOP) (Homo sapiens, UniProt P41145); experiment: Radioligand binding, human κ-opioid (KOP) membranes, filtration, [3H]-Diprenorphine; details: compound at 10 μM, [3H]-Diprenorphine
T1 construct: purchased Perkin Elmer Biosignal
Procedure, shortened: (§1)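 Membranes from cloned human receptors were incubated with compound and radioligand for 1 hour at room temperature. Bound ligand was collected on 0.3% PEI-soaked filters, washed with cold 50 mM Tris-HCl pH 7.4, and counted by scintillation. Percent inhibition was computed against DMSO totals and reference-ligand nonspecific wells.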

Human μ-opioid (MOP) = molecular target: T2, Human μ-opioid (MOP) (Homo sapiens, UniProt P35372); experiment: Radioligand binding, human μ-opioid (MOP) membranes, FlashPlate, [3H]-Naloxone; details: compound at 10 μM, [3H]-Naloxone
T2 construct: purchased Perkin Elmer Biosignal
T2 sequence (P35372 whole entry): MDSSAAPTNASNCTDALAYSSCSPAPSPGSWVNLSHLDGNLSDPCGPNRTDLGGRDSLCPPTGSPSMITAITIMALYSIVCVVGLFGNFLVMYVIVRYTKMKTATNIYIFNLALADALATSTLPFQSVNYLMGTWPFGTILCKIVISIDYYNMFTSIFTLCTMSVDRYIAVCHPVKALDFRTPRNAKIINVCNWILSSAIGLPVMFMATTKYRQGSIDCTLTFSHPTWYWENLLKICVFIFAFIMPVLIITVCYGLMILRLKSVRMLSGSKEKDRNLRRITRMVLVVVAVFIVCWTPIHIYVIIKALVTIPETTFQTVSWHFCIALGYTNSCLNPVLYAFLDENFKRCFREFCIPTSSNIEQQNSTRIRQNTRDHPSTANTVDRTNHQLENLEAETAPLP
Procedure, shortened: (§2)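 Cloned human receptor membranes were coated onto FlashPlate wells and incubated with radioligand and compound (added from a 0.5 mM DMSO daughter plate) for 1 hour at room temperature in the dark. Scintillation counting gave percent inhibition, with DMSO defining total and reference ligand defining non-specific binding.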

Human melanocortin (MC5) = molecular target: T3, Human melanocortin (MC5) (Homo sapiens, UniProt P33032); experiment: Radioligand binding, human melanocortin MC5 membranes, FlashPlate, [125I]-NDP-αMSH; details: compound at 10 μM, [125I]-NDP-αMSH
T3 construct: purchased Perkin Elmer Biosignal
T3 sequence (P33032 whole entry): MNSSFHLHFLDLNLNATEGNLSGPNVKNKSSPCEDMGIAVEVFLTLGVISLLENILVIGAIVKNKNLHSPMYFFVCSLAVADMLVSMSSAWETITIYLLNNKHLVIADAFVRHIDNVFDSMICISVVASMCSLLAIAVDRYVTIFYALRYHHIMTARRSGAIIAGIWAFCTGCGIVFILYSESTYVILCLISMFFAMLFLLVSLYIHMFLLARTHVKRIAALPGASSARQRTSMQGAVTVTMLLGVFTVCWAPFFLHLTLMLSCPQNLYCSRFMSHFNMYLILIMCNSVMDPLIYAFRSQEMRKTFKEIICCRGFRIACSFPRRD
Procedure, shortened: as §2

Human δ-opioid (DOP) = molecular target: T4, Human δ-opioid (DOP) (Homo sapiens, UniProt P41143); experiment: Radioligand binding, human δ-opioid (DOP) membranes, FlashPlate, [3H]-Bremazocine; details: compound at 10 μM, [3H]-Bremazocine
T4 construct: purchased Perkin Elmer Biosignal
T4 sequence (P41143 whole entry): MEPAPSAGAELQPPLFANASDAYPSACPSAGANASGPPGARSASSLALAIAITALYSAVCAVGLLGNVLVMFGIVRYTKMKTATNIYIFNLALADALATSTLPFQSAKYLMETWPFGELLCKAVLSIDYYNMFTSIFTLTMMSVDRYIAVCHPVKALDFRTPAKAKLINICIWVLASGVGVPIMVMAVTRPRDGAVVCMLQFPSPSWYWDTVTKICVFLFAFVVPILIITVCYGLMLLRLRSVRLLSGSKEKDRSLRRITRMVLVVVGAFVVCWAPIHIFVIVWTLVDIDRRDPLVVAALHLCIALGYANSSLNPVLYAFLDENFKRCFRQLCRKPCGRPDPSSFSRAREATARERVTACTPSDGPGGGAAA
Procedure, shortened: as §2

Human Melanocortin (MC3) = molecular target: T5, Human Melanocortin (MC3) (Homo sapiens, UniProt P41968); experiment: Radioligand binding, human melanocortin MC3 membranes, FlashPlate, [125I]-NDP-αMSH; details: compound at 10 μM, [125I]-NDP-αMSH
T5 construct: purchased Perkin Elmer Biosignal
T5 sequence (P41968 whole entry): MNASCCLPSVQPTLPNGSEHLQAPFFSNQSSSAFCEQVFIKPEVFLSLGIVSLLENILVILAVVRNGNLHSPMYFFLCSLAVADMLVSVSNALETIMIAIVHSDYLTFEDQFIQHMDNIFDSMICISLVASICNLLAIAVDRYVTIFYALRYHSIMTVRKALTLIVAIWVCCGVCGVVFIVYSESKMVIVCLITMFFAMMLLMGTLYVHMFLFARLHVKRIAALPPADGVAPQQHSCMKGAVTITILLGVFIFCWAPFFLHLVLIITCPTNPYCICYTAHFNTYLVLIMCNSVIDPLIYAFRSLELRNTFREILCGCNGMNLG
Procedure, shortened: as §2

[1] = molecular target: T6, Human neuropeptide Y (NPY-Y1) (Homo sapiens, UniProt P25929); experiment: Radioligand binding, human neuropeptide Y NPY-Y1 membranes, FlashPlate, [125I]-PYY; details: compound at 10 μM, [125I]-PYY
T6 construct: purchased Perkin Elmer Biosignal
T6 sequence (P25929 1-384): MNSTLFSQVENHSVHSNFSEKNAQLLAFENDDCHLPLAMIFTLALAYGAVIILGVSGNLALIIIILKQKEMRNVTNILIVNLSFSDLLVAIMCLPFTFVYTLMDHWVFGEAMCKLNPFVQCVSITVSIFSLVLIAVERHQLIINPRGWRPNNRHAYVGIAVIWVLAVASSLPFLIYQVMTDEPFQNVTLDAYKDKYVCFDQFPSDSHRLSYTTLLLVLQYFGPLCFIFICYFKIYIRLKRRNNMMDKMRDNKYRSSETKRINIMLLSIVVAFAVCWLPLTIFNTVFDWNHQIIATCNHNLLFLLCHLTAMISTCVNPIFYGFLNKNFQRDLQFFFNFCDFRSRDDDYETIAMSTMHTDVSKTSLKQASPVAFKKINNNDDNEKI
Procedure, shortened: as §2

Human opioid (ORL1) = molecular target: T7, Human opioid (ORL1) (Homo sapiens, UniProt P41146); experiment: Radioligand binding, human opioid ORL1 membranes, FlashPlate, [125I]-Nociceptin; details: compound at 10 μM, [125I]-Nociceptin
T7 construct: purchased Perkin Elmer Biosignal
T7 sequence (P41146 whole entry): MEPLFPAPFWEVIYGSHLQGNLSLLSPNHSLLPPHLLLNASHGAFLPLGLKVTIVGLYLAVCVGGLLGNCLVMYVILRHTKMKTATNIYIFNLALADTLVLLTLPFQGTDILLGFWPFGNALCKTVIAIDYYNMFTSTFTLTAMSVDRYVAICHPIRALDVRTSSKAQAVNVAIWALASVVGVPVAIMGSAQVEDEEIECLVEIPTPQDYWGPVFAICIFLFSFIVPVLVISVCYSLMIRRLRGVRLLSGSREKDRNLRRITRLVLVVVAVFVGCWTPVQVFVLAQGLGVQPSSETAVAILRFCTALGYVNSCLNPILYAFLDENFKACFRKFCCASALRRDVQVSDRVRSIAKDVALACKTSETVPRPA
Procedure, shortened: as §2

[2] = molecular target: T8, Human melanin-concentrating hormone (MCH1) (Homo sapiens, UniProt Q99705); experiment: Radioligand binding, human melanin-concentrating hormone MCH1 membranes, FlashPlate, [125I]-S36057; details: compound at 10 μM; for A6 radioligand binding, percentage inhibition / A6: inhibition of radioligand binding, human melanin-concentrating hormone (MCH1): [125I]-S36057
T8 construct: purchased Perkin Elmer Biosignal
T8 sequence (Q99705 whole entry): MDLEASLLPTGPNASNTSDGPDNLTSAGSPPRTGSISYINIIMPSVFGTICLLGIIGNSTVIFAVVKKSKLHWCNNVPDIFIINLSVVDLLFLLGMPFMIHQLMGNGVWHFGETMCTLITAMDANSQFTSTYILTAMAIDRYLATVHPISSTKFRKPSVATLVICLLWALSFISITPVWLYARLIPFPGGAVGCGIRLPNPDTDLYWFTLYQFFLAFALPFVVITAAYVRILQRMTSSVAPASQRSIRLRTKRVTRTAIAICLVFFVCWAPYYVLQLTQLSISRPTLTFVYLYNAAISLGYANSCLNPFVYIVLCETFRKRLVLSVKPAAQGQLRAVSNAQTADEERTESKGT
Procedure, shortened: as §2

Human Melanocortin (MC4) = molecular target: T9, Human Melanocortin (MC4) (Homo sapiens, UniProt P32245); experiment: Radioligand binding, human melanocortin MC4 membranes, FlashPlate, [125I]-NDP-αMSH; details: compound at 10 μM, [125I]-NDP-αMSH
T9 construct: purchased Perkin Elmer Biosignal
T9 sequence (P32245 whole entry): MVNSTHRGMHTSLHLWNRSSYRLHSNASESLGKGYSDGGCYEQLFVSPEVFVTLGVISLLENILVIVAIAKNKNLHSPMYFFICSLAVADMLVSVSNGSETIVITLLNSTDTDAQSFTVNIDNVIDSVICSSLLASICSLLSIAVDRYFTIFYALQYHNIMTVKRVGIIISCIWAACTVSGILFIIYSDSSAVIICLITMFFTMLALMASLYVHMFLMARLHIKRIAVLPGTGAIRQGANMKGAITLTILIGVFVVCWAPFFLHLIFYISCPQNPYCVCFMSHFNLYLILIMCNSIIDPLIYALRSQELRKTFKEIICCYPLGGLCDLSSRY
Procedure, shortened: as §2

Mouse urotensin (mUR2) = molecular target: T10, Mouse urotensin (mUR2) (Mus musculus, UniProt Q8VIH9); experiment: Radioligand binding, mouse urotensin mUR2 membranes, FlashPlate, [125I]-Urotensin II; details: compound at 10 μM, [125I]-Urotensin II
T10 construct: purchased Perkin Elmer Biosignal
T10 sequence (Q8VIH9 1-385): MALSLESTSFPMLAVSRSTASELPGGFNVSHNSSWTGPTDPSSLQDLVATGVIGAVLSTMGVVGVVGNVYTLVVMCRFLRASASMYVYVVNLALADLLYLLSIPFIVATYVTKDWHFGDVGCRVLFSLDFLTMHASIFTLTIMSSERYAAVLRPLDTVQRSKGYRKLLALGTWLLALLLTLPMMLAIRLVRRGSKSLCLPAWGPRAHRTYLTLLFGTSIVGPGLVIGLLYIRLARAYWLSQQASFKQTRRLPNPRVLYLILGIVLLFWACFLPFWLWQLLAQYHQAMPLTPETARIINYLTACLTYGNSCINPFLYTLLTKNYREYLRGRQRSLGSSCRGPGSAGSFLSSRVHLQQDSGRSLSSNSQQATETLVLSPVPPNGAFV
Procedure, shortened: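 Cloned mouse urotensin (mUR2) receptor membranes from Perkin Elmer Biosignal were immobilized in FlashPlate microplates using a proprietary coating. Each well got 19.5 μl buffer, then 0.5 μl of DMSO, reference ligand, or compound. Adding 5 μl of [125I]-Urotensin II, diluted to 5× final concentration in binding buffer, started binding. Plates were sealed with TopSeal-A and incubated 1 hour at room temperature in the dark. Wells were counted for 30 seconds each on a TopCount after a 60-second delay, and percentage inhibition was calculated.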

Human neurokinin (NK1) = molecular target: T11, Human neurokinin (NK1) (Homo sapiens, UniProt P25103); experiment: Radioligand binding, human neurokinin NK1 membranes, filtration, [125I]-Substance P; details: compound at 10 μM, [125I]-Substance P
T11 construct: purchased Perkin Elmer Biosignal
T11 sequence (P25103 whole entry): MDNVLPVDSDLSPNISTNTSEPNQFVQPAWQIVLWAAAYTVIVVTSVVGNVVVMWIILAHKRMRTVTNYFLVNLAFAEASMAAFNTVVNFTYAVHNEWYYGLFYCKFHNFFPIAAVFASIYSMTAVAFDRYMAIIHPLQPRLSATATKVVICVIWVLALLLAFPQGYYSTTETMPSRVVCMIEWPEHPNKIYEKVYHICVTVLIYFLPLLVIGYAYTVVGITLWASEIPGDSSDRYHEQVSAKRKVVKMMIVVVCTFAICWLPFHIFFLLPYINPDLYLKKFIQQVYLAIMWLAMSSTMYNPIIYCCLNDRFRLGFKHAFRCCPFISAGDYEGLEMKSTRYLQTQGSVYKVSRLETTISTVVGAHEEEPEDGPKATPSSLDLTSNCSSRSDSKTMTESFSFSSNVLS
Procedure, shortened: as §1

T1 sequence (P41145 whole entry): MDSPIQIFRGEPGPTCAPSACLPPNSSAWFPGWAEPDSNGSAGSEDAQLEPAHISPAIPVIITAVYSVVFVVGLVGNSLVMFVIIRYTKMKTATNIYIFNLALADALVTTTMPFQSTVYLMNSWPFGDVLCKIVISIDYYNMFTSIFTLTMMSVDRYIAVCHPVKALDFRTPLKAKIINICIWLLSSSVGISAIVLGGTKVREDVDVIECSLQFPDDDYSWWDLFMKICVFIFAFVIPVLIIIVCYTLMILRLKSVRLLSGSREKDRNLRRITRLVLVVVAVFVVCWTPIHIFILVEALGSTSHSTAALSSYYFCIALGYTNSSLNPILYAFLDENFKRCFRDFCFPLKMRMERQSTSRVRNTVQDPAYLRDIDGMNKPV

SMILES | A2 radioligand binding, percentage inhibition (Human κ-Opioid (KOP)) | A7 radioligand binding, percentage inhibition (Human μ-opioid (MOP)) | A5 radioligand binding, percentage inhibition (Human melanocortin (MC5)) | A1 radioligand binding, percentage inhibition (Human δ-opioid (DOP)) | A3 radioligand binding, percentage inhibition (Human Melanocortin (MC3)) | A9 radioligand binding, percentage inhibition [1] | A10 radioligand binding, percentage inhibition (Human opioid (ORL1)) | A6 radioligand binding, percentage inhibition [2] | A4 radioligand binding, percentage inhibition (Human Melanocortin (MC4)) | A2: inhibition of radioligand binding, human κ-opioid (KOP) (Human κ-Opioid (KOP)) | A7: inhibition of radioligand binding, human μ-opioid (MOP) (Human μ-opioid (MOP)) | A5: inhibition of radioligand binding, human melanocortin (MC5) (Human melanocortin (MC5)) | A1: inhibition of radioligand binding, human δ-opioid (DOP) (Human δ-opioid (DOP)) | A3: inhibition of radioligand binding, human melanocortin (MC3) (Human Melanocortin (MC3)) | A9: inhibition of radioligand binding, human neuropeptide Y (NPY-Y1) [1] | A10: inhibition of radioligand binding, human opioid (ORL1) (Human opioid (ORL1)) | A6: inhibition of radioligand binding, human melanin-concentrating hormone (MCH1) [2] | A4: inhibition of radioligand binding, human melanocortin (MC4) (Human Melanocortin (MC4)) | A11: inhibition of radioligand binding, mouse urotensin (mUR2) (Mouse urotensin (mUR2)) | A8: inhibition of radioligand binding, human neurokinin (NK1) (Human neurokinin (NK1)) | also measured
CSC1OC(COCc2ccc(Cl)cc2)C(O)C(OCc2ccc(Cl)cc2)C1NC(=O)CN (stereo not drawn) [compound 269] | – | – | – | – | – | – | – | – | – | – | – | – | – | – | – | – | – | – | – | – | A2: inhibition of radioligand binding (Human κ-Opioid (KOP); filtration): − (“−” indicates less than 50% inhibition at 10 μM); A7: inhibition of radioligand binding (Human μ-opioid (MOP); FlashPlate): − (“−” indicates less than 50% inhibition at 10 μM); A5: inhibition of radioligand binding (Human melanocortin (MC5); FlashPlate): − (“−” indicates less than 50% inhibition at 10 μM); A1: inhibition of radioligand binding (Human δ-opioid (DOP); FlashPlate): − (“−” indicates less than 50% inhibition at 10 μM); A3: inhibition of radioligand binding (Human Melanocortin (MC3); FlashPlate): − (“−” indicates less than 50% inhibition at 10 μM); A9: inhibition of radioligand binding ([1]; FlashPlate): − (“−” indicates less than 50% inhibition at 10 μM); A10: inhibition of radioligand binding (Human opioid (ORL1); FlashPlate): − (“−” indicates less than 50% inhibition at 10 μM); A6: inhibition of radioligand binding ([2]; [125I]-S36057, FlashPlate): − (“−” indicates less than 50% inhibition at 10 μM); A4: inhibition of radioligand binding (Human Melanocortin (MC4); FlashPlate): − (“−” indicates less than 50% inhibition at 10 μM); A11: inhibition of radioligand binding (Mouse urotensin (mUR2); FlashPlate): − (“−” indicates less than 50% inhibition at 10 μM); A8: inhibition of radioligand binding (Human neurokinin (NK1); filtration): + (“+” indicates greater than 50% inhibition at 10 μM)
CO[C@H]1[C@H](O)[C@@H](COCc2ccc3ccccc3c2)OC(OCc2cccc(O)c2)[C@@H]1NC(=O)CNC(=N)N (stereo partly drawn) [compound 165] | − (“−” indicates less than 50% inhibition at 10 μM) | − (“−” indicates less than 50% inhibition at 10 μM) | − (“−” indicates less than 50% inhibition at 10 μM) | − (“−” indicates less than 50% inhibition at 10 μM) | − (“−” indicates less than 50% inhibition at 10 μM) | − (“−” indicates less than 50% inhibition at 10 μM) | − (“−” indicates less than 50% inhibition at 10 μM) | − (“−” indicates less than 50% inhibition at 10 μM) | − (“−” indicates less than 50% inhibition at 10 μM) | – | – | – | – | – | – | – | – | – | – | – | A11 radioligand binding, percentage inhibition (Mouse urotensin (mUR2)): − (“−” indicates less than 50% inhibition at 10 μM); A8 radioligand binding, percentage inhibition (Human neurokinin (NK1)): + (“+” indicates greater than 50% inhibition at 10 μM)
CO[C@H]1[C@H](O)[C@@H](COCc2ccc(-c3ccccc3)cc2)OC(OCc2cccc(O)c2)[C@@H]1NC(=O)CNC(=N)N (stereo partly drawn) [compound 162] | − (“−” indicates less than 50% inhibition at 10 μM) | − (“−” indicates less than 50% inhibition at 10 μM) | − (“−” indicates less than 50% inhibition at 10 μM) | − (“−” indicates less than 50% inhibition at 10 μM) | − (“−” indicates less than 50% inhibition at 10 μM) | − (“−” indicates less than 50% inhibition at 10 μM) | − (“−” indicates less than 50% inhibition at 10 μM) | − (“−” indicates less than 50% inhibition at 10 μM) | − (“−” indicates less than 50% inhibition at 10 μM) | – | – | – | – | – | – | – | – | – | – | – | A11 radioligand binding, percentage inhibition (Mouse urotensin (mUR2)): − (“−” indicates less than 50% inhibition at 10 μM); A8 radioligand binding, percentage inhibition (Human neurokinin (NK1)): + (“+” indicates greater than 50% inhibition at 10 μM)
COC[C@H]1OC(OCc2ccc3ccccc3c2)[C@H](NC(=O)CCCN)[C@@H](OCc2ccc(Cl)cc2)[C@@H]1O (stereo partly drawn) [compound 340] | – | – | – | – | – | – | – | – | – | − (“−” indicates less than 50% inhibition at 10 μM) | − (“−” indicates less than 50% inhibition at 10 μM) | − (“−” indicates less than 50% inhibition at 10 μM) | − (“−” indicates less than 50% inhibition at 10 μM) | − (“−” indicates less than 50% inhibition at 10 μM) | − (“−” indicates less than 50% inhibition at 10 μM) | − (“−” indicates less than 50% inhibition at 10 μM) | − (“−” indicates less than 50% inhibition at 10 μM) | − (“−” indicates less than 50% inhibition at 10 μM) | − (“−” indicates less than 50% inhibition at 10 μM) | + (“+” indicates greater than 50% inhibition at 10 μM) | –
NCCC(=O)NC1COC(COCc2ccc(-c3ccccc3)cc2)C(O)C1OCc1ccc(Cl)cc1 (stereo not drawn) [compound 544] | – | – | – | – | – | – | – | – | – | + (“+” indicates greater than 50% inhibition at 10 μM) | − (“−” indicates less than 50% inhibition at 10 μM) | − (“−” indicates less than 50% inhibition at 10 μM) | − (“−” indicates less than 50% inhibition at 10 μM) | + (“+” indicates greater than 50% inhibition at 10 μM) | − (“−” indicates less than 50% inhibition at 10 μM) | − (“−” indicates less than 50% inhibition at 10 μM) | − (“−” indicates less than 50% inhibition at 10 μM) | − (“−” indicates less than 50% inhibition at 10 μM) | − (“−” indicates less than 50% inhibition at 10 μM) | + (“+” indicates greater than 50% inhibition at 10 μM) | –
CSC1OC(COCc2ccc(Cl)cc2)C(O)C(OCc2cccc(N)c2)C1NC(=O)c1c[nH]c2ccccc12 (stereo not drawn) [compound 323] | – | – | – | – | – | – | – | – | – | − (“−” indicates less than 50% inhibition at 10 μM) | − (“−” indicates less than 50% inhibition at 10 μM) | − (“−” indicates less than 50% inhibition at 10 μM) | − (“−” indicates less than 50% inhibition at 10 μM) | − (“−” indicates less than 50% inhibition at 10 μM) | − (“−” indicates less than 50% inhibition at 10 μM) | − (“−” indicates less than 50% inhibition at 10 μM) | − (“−” indicates less than 50% inhibition at 10 μM) | − (“−” indicates less than 50% inhibition at 10 μM) | − (“−” indicates less than 50% inhibition at 10 μM) | + (“+” indicates greater than 50% inhibition at 10 μM) | –
